# Data as given in patent publication US6660742B2, “Compositions and methods of the use thereof achiral analogues of CC-1065 and the duocarmycins” (priority 2000, dated 2003).
# Like-named read-outs stand apart in the source and are kept apart here.
# Experiments:
# SF-268 = assay: NCI screen, SF-268 (CNS Cancer); details: SF-268, 48 hour exposure
# Experimental: The compounds of this invention were also tested against the panel of 60 human cancer cell lines at the National Cancer Institute, Bethesda, Md. (44). The cytrotoxicity studies were conducted using a 48 hour exposure, and measuring the optical density of sulforhodamide B-derived color.
# MCF7 = assay: NCI screen, MCF7 (Breast Cancer)
# Experimental: (§1) The compounds of this invention were also tested against the panel of 60 human cancer cell lines at the National Cancer Institute, Bethesda, Md. […] The cytrotoxicity studies were conducted using a 48 hour exposure, and measuring the optical density of sulforhodamide B-derived color.
# PC-3 = assay: NCI screen, PC-3 (Prostrate Cancer)
# Experimental: as §1
# SW-620 = assay: NCI screen, SW-620 (Colon Cancer); assay type: cell-based, human
# Experimental: as §1
# IGROV1 = assay: NCI screen, IGROV1 (Ovarian Cancer); assay type: cell-based, human; details: IGROV1, 48 hour exposure
# Experimental: as §1
# RXF 393 = assay: NCI screen, RXF 393 (Renal Cancer)
# Experimental: as §1
# SK-OV-3 = assay: NCI screen, SK-OV-3 (Ovarian Cancer)
# Experimental: as §1
# UACC-62 = assay: NCI screen, UACC-62 (Melanoma)
# Experimental: as §1
# SN12C = assay: NCI screen, SN12C (Renal Cancer)
# Experimental: as §1
# [1] = test system: panel of 60 human cancer cell lines; assay: NCI in-vitro cytotoxicity screen, whole panel; assay type: cell-based
# K-562 = assay: NCI screen, K-562 (Leukemia)
# Experimental: as §1
# TK-10 = assay: NCI screen, TK-10 (Renal Cancer); details: TK-10, 48 hour exposure
# Experimental: as §1
# SF-295 = assay: NCI screen, SF-295 (CNS Cancer)
# Experimental: as §1
# CAKI-1 = assay: NCI screen, CAKI-1 (Renal Cancer); details: CAKI-1, 48 hour exposure
# Experimental: as §1
# 786-0 = assay: NCI screen, 786-0 (Renal Cancer)
# Experimental: as §1
# SF-539 = assay: NCI screen, SF-539 (CNS Cancer)
# Experimental: as §1
# NCI-H522 = assay: NCI screen, NCI-H522 (Non-Small Cell Lung Cancer)
# Experimental: as §1
# HCT-116 = assay: NCI screen, HCT-116 (Colon Cancer); details: HCT-116, 48 hour exposure
# Experimental: as §1
# MDA-N = assay: NCI screen, MDA-N (Breast Cancer); details: MDA-N, 48 hour exposure
# Experimental: as §1
# [2] = Log10 Concentration −4.3, 48 hour exposure
# [3] = Log10 Concentration −5.3, 48 hour exposure
# [4] = Log10 Concentration −6.3, 48 hour exposure
# [5] = Log10 Concentration −7.3, 48 hour exposure
# [6] = Log10 Concentration −8.3, 48 hour exposure
smiles,measurement,setting,value
"COC(=O)c1[nH]c2c(O)cc(NC(=O)c3cc4cc(OC)c(OC)c(OC)c4[nH]3)c(CCCl)c2c1C(=O)OC [Compound 22, Dimethyl 4-(2-chloroethyl)-7-hydroxy-5-(5,6,7-trimethoxyindole-2-carboxamido)indole-2,3-dicarboxylate]",TGI,SF-268,8.40E−08 Molar
same,Percent Growth,SF-268; Log10 Concentration −4.3,−58%
same,Percent Growth,SF-268; Log10 Concentration −5.3,−63%
same,Percent Growth,SF-268; Log10 Concentration −6.3,−42%
same,Percent Growth,SF-268; Log10 Concentration −7.3,12%
same,Percent Growth,SF-268; Log10 Concentration −8.3,80%
same,TGI,RPMI-8226,>5.00E−05 Molar
same,TGI,MCF7; 48 hour exposure,6.31E−06 Molar
same,Percent Growth,MCF7; [2],−51%
same,Percent Growth,MCF7; [3],6%
same,Percent Growth,MCF7; [4],6%
same,Percent Growth,MCF7; [5],39%
same,Percent Growth,MCF7; [6],70%
same,TGI,HOP-92; 48 hour exposure,2.57E−06 Molar
same,Percent Growth,HOP-92; [2],−38%
same,Percent Growth,HOP-92; [3],−5%
same,Percent Growth,HOP-92; [4],12%
same,Percent Growth,HOP-92; [5],97%
same,Percent Growth,HOP-92; [6],101%
same,TGI,PC-3; 48 hour exposure,6.40E−07 Molar
same,Percent Growth,PC-3; [2],−88%
same,Percent Growth,PC-3; [3],−32%
same,Percent Growth,PC-3; [4],4%
same,Percent Growth,PC-3; [5],55%
same,Percent Growth,PC-3; [6],81%
same,TGI,SW-620; 48 hour exposure,1.90E−05 Molar
same,Percent Growth,SW-620; [2],−11%
same,Percent Growth,SW-620; [3],16%
same,Percent Growth,SW-620; [4],9%
same,Percent Growth,SW-620; [5],71%
same,Percent Growth,SW-620; [6],86%
same,TGI,IGROV1,1.62E−07 Molar
same,Percent Growth,IGROV1; Log10 Concentration −4.3,−80%
same,Percent Growth,IGROV1; Log10 Concentration −5.3,−35%
same,Percent Growth,IGROV1; Log10 Concentration −6.3,−59%
same,Percent Growth,IGROV1; Log10 Concentration −7.3,61%
same,Percent Growth,IGROV1; Log10 Concentration −8.3,71%
same,TGI,RXF 393; 48 hour exposure,1.31E−06 Molar
same,Percent Growth,RXF 393; [2],−65%
same,Percent Growth,RXF 393; [3],−25%
same,Percent Growth,RXF 393; [4],18%
same,Percent Growth,RXF 393; [5],57%
same,Percent Growth,RXF 393; [6],94%
same,TGI,SK-OV-3; 48 hour exposure,8.81E−06 Molar
same,Percent Growth,SK-OV-3; [2],−54%
same,Percent Growth,SK-OV-3; [3],17%
same,Percent Growth,SK-OV-3; [4],35%
same,Percent Growth,SK-OV-3; [5],90%
same,Percent Growth,SK-OV-3; [6],103%
same,TGI,UACC-62; 48 hour exposure,1.85E−07 Molar
same,Percent Growth,UACC-62; [2],−89%
same,Percent Growth,UACC-62; [3],−78%
same,Percent Growth,UACC-62; [4],−58%
same,Percent Growth,UACC-62; [5],76%
same,Percent Growth,UACC-62; [6],90%
same,TGI,SN12C; 48 hour exposure,7.17E−06 Molar
same,Percent Growth,SN12C; [2],−50%
same,Percent Growth,SN12C; [3],9%
same,Percent Growth,SN12C; [4],22%
same,Percent Growth,SN12C; [5],84%
same,Percent Growth,SN12C; [6],90%
same,range of activity,[1]; 48 hour exposure,micromolar range
same,activity against leukemia cells,[1]; leukemia cells,none of these compounds showed much activity
same,activity against melanoma cells,[1]; melanoma cells,active
same,activity against solid tumors cells,[1]; solid tumors cells,strong activity
same,TGI,HCT-15,4.00E−06 Molar
same,TGI,KM12,2.03E−07 Molar
same,TGI,K-562; 48 hour exposure,>5.00E−05 Molar
same,Percent Growth,K-562; [2],36%
same,Percent Growth,K-562; [3],34%
same,Percent Growth,K-562; [4],43%
same,Percent Growth,K-562; [5],77%
same,Percent Growth,K-562; [6],94%
same,TGI,TK-10,>5.00E−05 Molar
same,Percent Growth,TK-10; Log10 Concentration −4.3,8%
same,Percent Growth,TK-10; Log10 Concentration −5.3,22%
same,Percent Growth,TK-10; Log10 Concentration −6.3,31%
same,Percent Growth,TK-10; Log10 Concentration −7.3,102%
same,Percent Growth,TK-10; Log10 Concentration −8.3,100%
same,Percent Growth,SF-295,1%
same,TGI,"SF-295; SF-295, 48 hour exposure",>5.00E−05 Molar
same,Percent Growth,"SF-295; SF-295, Log10 Concentration −5.3, 48 hour exposure",11%
same,Percent Growth,"SF-295; SF-295, Log10 Concentration −6.3, 48 hour exposure",14%
same,Percent Growth,"SF-295; SF-295, Log10 Concentration −7.3, 48 hour exposure",74%
same,Percent Growth,"SF-295; SF-295, Log10 Concentration −8.3, 48 hour exposure",106%
same,TGI,CAKI-1,8.01E−06 Molar
same,Percent Growth,CAKI-1; Log10 Concentration −4.3,−40%
same,Percent Growth,CAKI-1; Log10 Concentration −5.3,10%
same,Percent Growth,CAKI-1; Log10 Concentration −6.3,12%
same,Percent Growth,CAKI-1; Log10 Concentration −7.3,83%
same,Percent Growth,CAKI-1; Log10 Concentration −8.3,97%
same,TGI,786-0; 48 hour exposure,4.92E−07 Molar
same,Percent Growth,786-0; [2],−50%
same,Percent Growth,786-0; [3],−26%
same,Percent Growth,786-0; [4],−1%
same,Percent Growth,786-0; [5],82%
same,Percent Growth,786-0; [6],94%
same,TGI,SF-539; 48 hour exposure,2.07E−07 Molar
same,Percent Growth,SF-539; [2],−90%
same,Percent Growth,SF-539; [3],−84%
same,Percent Growth,SF-539; [4],−47%
same,Percent Growth,SF-539; [5],75%
same,Percent Growth,SF-539; [6],89%
same,TGI,NCI-H522; 48 hour exposure,1.47E−07 Molar
same,Percent Growth,NCI-H522; [2],−96%
same,Percent Growth,NCI-H522; [3],−86%
same,Percent Growth,NCI-H522; [4],−66%
same,Percent Growth,NCI-H522; [5],58%
same,Percent Growth,NCI-H522; [6],74%
same,TGI,HCT-116,1.95E−07 Molar
same,Percent Growth,HCT-116; Log10 Concentration −4.3,−59%
same,Percent Growth,HCT-116; Log10 Concentration −5.3,−9%
same,Percent Growth,HCT-116; Log10 Concentration −6.3,−43%
same,Percent Growth,HCT-116; Log10 Concentration −7.3,62%
same,Percent Growth,HCT-116; Log10 Concentration −8.3,88%
same,Percent Growth,MDA-N; Log10 Concentration −4.3,8%
same,Percent Growth,MDA-N; Log10 Concentration −5.3,−3%
same,Percent Growth,MDA-N; Log10 Concentration −6.3,5%
same,Percent Growth,MDA-N; Log10 Concentration −7.3,91%
same,Percent Growth,MDA-N; Log10 Concentration −8.3,90%
